In patent publication US20140135310A1, “SULPHONAMIDE DERIVATIVES OF ALICYCLIC AMINES FOR THE TREATMENT OF CENTRAL NERVOUS SYSTEM DISEASES” (Adamed Sp. z o.o., priority 2011, published 2014):

Experiments:
5-HT7 receptor = target: T1, 5-HT7 receptor (Homo sapiens, UniProt P34969); assay: Radioligand binding assay, serotoninergic 5-HT7 receptors; conditions: binding assay result in %, Table 5a;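 note: test compound at 1 µM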
T1 construct: purchased PerkinElmer
Method in brief: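 Competition binding at human 5-HT7 receptors with a radioligand, detected by scintillation counting; non-specific binding was defined with excess unlabelled ligand. IC50 came from Hill-equation fits of competition curves, and Ki from Cheng–Prusoff using radioligand concentration and Scatchard-derived KD.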

5-HT2A receptor = target: T2, 5-HT2A receptor (Homo sapiens, UniProt P28223); assay: Radioligand binding assay, serotoninergic 5-HT2A receptors; conditions: binding assay result in %, Table 5a
T2 construct: purchased PerkinElmer
T2 sequence (P28223 whole entry): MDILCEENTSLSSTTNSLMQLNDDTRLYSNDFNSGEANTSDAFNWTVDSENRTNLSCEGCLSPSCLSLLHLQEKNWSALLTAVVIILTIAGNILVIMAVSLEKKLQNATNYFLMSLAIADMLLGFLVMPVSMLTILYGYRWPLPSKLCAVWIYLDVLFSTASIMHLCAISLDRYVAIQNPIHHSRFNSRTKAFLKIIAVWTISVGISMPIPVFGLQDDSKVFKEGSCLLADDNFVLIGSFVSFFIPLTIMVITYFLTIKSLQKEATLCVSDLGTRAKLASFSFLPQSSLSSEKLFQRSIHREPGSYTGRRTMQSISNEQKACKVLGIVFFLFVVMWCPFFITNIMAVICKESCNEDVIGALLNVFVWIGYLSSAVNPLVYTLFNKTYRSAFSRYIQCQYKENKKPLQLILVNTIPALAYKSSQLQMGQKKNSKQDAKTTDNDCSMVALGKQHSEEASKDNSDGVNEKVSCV
Method in brief: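 Radioligand competition binding with scintillation counting; nonspecific binding defined by excess unlabelled ligand. Data as percent inhibition of control specific binding. IC50 by Hill-equation fit of competition curves; Ki by Cheng-Prusoff, with radioligand Kd from Scatchard plot.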

[1] = target: T3, serotonin transporter (SERT) (Homo sapiens, UniProt P31645); assay: Radioligand binding assay, serotonin transporter (SERT); conditions: binding assay, test compound 1×10^−6 M
T3 construct: expressed in transfected cells; host or cells: CHO cells
T3 sequence (P31645 whole entry): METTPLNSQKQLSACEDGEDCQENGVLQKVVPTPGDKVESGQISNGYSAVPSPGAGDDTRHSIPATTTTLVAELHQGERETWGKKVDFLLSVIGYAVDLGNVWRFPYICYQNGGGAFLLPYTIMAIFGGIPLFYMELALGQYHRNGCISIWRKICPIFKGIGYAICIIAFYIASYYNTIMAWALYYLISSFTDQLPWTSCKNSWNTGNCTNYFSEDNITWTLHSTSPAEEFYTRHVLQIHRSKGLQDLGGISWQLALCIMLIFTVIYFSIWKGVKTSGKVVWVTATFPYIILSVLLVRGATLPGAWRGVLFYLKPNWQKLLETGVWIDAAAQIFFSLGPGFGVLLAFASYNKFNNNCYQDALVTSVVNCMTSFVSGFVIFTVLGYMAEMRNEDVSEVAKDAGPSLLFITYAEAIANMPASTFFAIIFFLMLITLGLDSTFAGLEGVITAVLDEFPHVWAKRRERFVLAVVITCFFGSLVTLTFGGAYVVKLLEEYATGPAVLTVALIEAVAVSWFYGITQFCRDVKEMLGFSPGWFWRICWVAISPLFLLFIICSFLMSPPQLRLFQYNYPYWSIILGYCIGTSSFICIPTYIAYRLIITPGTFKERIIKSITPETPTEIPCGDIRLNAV
Method in brief: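 Radioligand competition binding with scintillation detection; specific binding is total minus binding under excess unlabelled ligand. Reported as % of control specific binding or % inhibition; IC50 from Hill-equation non-linear regression of competition curves, and Ki via Cheng-Prusoff using radioligand concentration and Scatchard-derived KD.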

[2] = target: dopaminergic receptors D2 (Homo sapiens, UniProt P14416); assay: Radioligand binding assay, dopaminergic D2 receptors; conditions: binding assay, test compound 1×10^−6 M
dopaminergic receptors D2, sequence (P14416 whole entry): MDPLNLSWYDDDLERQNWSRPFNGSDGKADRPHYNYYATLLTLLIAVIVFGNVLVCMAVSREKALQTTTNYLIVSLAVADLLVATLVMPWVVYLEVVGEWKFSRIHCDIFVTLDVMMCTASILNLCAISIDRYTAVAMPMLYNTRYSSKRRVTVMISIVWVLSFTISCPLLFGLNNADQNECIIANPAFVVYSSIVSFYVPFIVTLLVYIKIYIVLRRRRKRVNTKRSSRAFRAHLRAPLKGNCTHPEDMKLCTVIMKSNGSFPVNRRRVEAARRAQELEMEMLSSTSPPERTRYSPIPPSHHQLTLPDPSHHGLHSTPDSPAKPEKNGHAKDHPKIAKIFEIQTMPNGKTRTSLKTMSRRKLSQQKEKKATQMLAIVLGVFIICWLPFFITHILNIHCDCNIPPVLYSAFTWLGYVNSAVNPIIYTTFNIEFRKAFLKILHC
Method in brief: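 Total binding is counted by scintillation and non-specific binding subtracted using an excess of unlabelled ligand. IC50 comes from a Hill-equation fit with slope factor; Ki follows Cheng–Prusoff.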

5-HT6 receptor = target: T4, 5-HT6 receptor (Homo sapiens, UniProt P50406); assay: Radioligand binding assay, serotoninergic 5-HT6 receptors; conditions: binding assay result in %, Table 5a;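 note: test compound at 1 µM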
T4 construct: purchased PerkinElmer
T4 sequence (P50406 whole entry): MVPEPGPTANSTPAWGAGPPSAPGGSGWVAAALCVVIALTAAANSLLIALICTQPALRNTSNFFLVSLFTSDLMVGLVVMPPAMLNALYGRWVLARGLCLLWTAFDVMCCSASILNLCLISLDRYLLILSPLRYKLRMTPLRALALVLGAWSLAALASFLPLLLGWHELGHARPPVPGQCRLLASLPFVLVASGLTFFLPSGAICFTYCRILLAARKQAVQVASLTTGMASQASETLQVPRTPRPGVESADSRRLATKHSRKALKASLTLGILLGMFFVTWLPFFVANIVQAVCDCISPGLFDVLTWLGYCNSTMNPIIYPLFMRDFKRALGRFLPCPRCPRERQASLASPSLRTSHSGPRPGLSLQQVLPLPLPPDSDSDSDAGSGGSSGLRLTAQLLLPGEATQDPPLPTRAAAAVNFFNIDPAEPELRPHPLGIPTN
Method in brief: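 Values are Ki from Cheng–Prusoff, taking IC50 from Hill nonlinear regression of competition curves and KD from a Scatchard plot. Specific binding was total minus binding with excess unlabelled ligand. Radioligand displacement was detected by scintillation counting, and data were also reported as percent of control specific binding.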

[3] = target: T5, 5-HT1A receptor (rat hippocampus) (Rattus norvegicus, UniProt P19327); assay: Radioligand binding assay, serotoninergic 5-HT1A receptors; conditions: binding assay result in %, Table 5a;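 note: test compound at 1 µM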
T5 construct: hippocampus; from tissue; host or cells: rat hippocampus
T5 sequence (P19327 1-422): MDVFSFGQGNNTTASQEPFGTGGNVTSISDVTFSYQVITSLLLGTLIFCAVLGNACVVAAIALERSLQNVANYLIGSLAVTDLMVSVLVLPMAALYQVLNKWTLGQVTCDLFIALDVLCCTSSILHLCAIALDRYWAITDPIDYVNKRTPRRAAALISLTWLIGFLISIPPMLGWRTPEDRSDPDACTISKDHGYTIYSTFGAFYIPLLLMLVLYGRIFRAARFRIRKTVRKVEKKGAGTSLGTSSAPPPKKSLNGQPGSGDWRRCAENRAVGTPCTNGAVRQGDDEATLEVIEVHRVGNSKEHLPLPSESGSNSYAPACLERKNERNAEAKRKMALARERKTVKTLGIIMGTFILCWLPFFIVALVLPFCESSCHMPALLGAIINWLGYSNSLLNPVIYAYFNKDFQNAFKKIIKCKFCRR

[4] = target: dopaminergic receptors D3 (Homo sapiens, UniProt P35462); assay: Radioligand binding assay, dopaminergic D3 receptors; conditions: test compound 1×10^−6 M
dopaminergic receptors D3, sequence (P35462 whole entry): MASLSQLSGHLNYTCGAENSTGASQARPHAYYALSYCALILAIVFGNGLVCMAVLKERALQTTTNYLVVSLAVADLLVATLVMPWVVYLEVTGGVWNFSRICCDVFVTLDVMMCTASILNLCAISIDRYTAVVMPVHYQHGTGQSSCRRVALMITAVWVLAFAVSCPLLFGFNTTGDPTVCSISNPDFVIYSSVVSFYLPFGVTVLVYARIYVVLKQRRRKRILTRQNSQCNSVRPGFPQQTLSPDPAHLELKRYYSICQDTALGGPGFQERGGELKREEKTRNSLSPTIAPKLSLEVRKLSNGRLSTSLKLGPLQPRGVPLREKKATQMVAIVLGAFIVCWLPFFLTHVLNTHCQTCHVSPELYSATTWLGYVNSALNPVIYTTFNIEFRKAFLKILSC
Method in brief: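 Competition radioligand binding at human D2, D3 and D4.4 receptors, detected by scintillation counting; nonspecific binding defined with excess unlabelled ligand. Results as percent inhibition of control specific binding; IC50 by Hill-equation nonlinear regression; Ki via Cheng-Prusoff, with radioligand KD from Scatchard plot.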

[5] = test system: α1 adrenergic receptors (rat cerebral cortex); assay: Radioligand binding assay, adrenergic α1 receptors; conditions: test compound 1×10^−6 M
Source text: The specific ligand binding to the receptors is defined as the difference between the total binding and the non-specific binding determined in the presence of the excess of unlabelled ligand.
The results are expressed as a percent of control specific binding ((measured specific binding/control specific binding)×100) and as a percent inhibition of control specific binding (100−((measured specific binding/control specific binding)×100)) obtained in the presence of the test compounds. The specific ligand binding to the receptors is defined as the difference between the total binding and the nonspecific binding determined in the presence of an excess of unlabelled ligand. Scintillation counting was the method of detection of ligand binding. The IC50 values (concentration causing a half-maximal inhibition of control specific binding) were determined by non-linear regression analysis of the competition curves generated with mean replicate values using Hill equation curve fitting (Y=D+[(A−D)/(1+(C/C50)nH)], where Y=specific binding, D=minimum specific binding, A=maximum specific binding, C=compound concentration, C50=IC50, and nH=slope factor). […] The inhibition constants (Ki) were calculated using the Cheng Prusoff equation (Ki=IC50/(1+(L/KD)), where L=concentration of radioligand in the assay, and KD=affinity of the radioligand for the receptor). A scatchard plot was used to determine the Kd.

T1 sequence (P34969 whole entry): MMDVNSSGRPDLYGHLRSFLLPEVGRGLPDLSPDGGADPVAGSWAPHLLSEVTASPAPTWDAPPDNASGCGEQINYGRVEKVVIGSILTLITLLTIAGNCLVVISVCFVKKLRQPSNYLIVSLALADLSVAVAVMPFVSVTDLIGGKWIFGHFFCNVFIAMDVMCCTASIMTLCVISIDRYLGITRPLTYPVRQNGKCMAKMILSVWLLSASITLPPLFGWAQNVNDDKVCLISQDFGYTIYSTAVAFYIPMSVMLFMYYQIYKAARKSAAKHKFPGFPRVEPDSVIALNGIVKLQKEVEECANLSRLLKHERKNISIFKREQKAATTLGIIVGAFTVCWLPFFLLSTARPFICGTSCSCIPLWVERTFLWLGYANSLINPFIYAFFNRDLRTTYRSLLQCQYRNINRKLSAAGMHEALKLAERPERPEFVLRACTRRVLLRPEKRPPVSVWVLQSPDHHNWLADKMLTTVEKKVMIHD

| 5-HT7 [%] (5-HT7 receptor) | 5-HT2A [%] (5-HT2A receptor) | SERT [%] [1] | D2 [%] [2] | 5-HT6 [%] (5-HT6 receptor) | 5-HT1A [%] [3] | D3 [%] [4] | SMILES | α1 [%] [5] | inhibition at 1 µM (5-HT7 receptor) | inhibition at 1 µM (5-HT2A receptor) | inhibition at 1 µM [1] | inhibition at 1 µM [2] | inhibition at 1 µM (5-HT6 receptor) | inhibition at 1 µM [3] | inhibition at 1 µM [4] |
| --- | --- | --- | --- | --- | --- | --- | --- | --- | --- | --- | --- | --- | --- | --- | --- |
|  |  |  |  |  |  |  | O=S(=O)(NC1CCN(CCCc2c[nH]c3ccc(Cl)cc23)C1)c1ccccc1 (stereo not drawn) [Compound 81, N-[1-[3-(5-Chloro-1H-indol-3-yl)propyl]pyrrolidin-3-yl]benzene-sulphonamide] | 36% | 84% | 75% | 78% | 60% | 75% | 109% | 86% |
|  |  |  |  |  |  |  | O=S(=O)(NC1CCN(CCCc2c[nH]c3ccc(Cl)cc23)C1)c1ccc(F)cc1 (stereo not drawn) [Compound 83, N-[1-[3-(5-Chloro-1H-indol-3-yl)propyl]pyrrolidin-3-yl]-4-fluoro-benzenesulphonamide] | 23% | 86% | 82% | 78% | 44% | 84% | 104% | 76% |
|  |  |  |  |  |  |  | O=S(=O)(NC1CCN(CCCc2c[nH]c3ccc(Cl)cc23)C1)c1ccc(Cl)cc1 (stereo not drawn) [Compound 85, 4-Chloro-N-[1-[3-(5-chloro-1H-indol-3-yl)propyl]pyrrolidin-3-yl]-benzene-sulphonamide] | 9% | 89% | 64% | 70% | 45% | 82% | 102% | 75% |
|  |  |  |  |  |  |  | O=S(=O)(NC1CCN(CCCc2c[nH]c3ccc(Cl)cc23)C1)c1ccc2ccccc2c1 (stereo not drawn) [Compound 87, N-[1-[3-(5-Chloro-1H-indol-3-yl)propyl]pyrrolidin-3-yl]naphthalene-2-sulphonamide] | 18% | 71% | 78% | 64% | 63% | 91% | 105% | 86% |
| 84% | 34% | −13% | −5% | 13% | 96% | −2% | O=S(=O)(NC1CN(CCOc2cccc3c2OCCO3)C1)c1ccccc1 [Compound 88, N-[1-[2-(2,3-Dihydro-1,4-benzodioxan-8-yloxy)ethyl]azetidin-3-yl]-benzenesulphonamide] | −23% |  |  |  |  |  |  |  |
| 92% | 49% | 18% | 5% | −16% | 82% | −7% | O=S(=O)(NC1CN(CCOc2cccc3c2OCCO3)C1)c1ccc(F)cc1 [Compound 90, N-[1-[2-(2,3-Dihydro-1,4-benzodioxan-8-yloxy)ethyl]azetidin-3-yl]-4-fluoro-benzenesulphonamide] | −25% |  |  |  |  |  |  |  |
| 91% | 47% | −4% | 15% | −20% | 88% | −8% | O=S(=O)(NC1CN(CCOc2cccc3c2OCCO3)C1)c1cccc(Cl)c1 [Compound 91, 3-Chloro-N-[1-[2-(2,3-dihydro-1,4-benzodioxan-8-yloxy)ethyl]azetidin-3-yl]benzenesulphonamide] | −15% |  |  |  |  |  |  |  |
| 94% | 0% | −4% | 5% | 9% | 94% | 1% | O=S(=O)(NC1CN(CCOc2cccc3c2OCCO3)C1)c1ccc2ccccc2c1 [Compound 95, N-[1-[2-(2,3-Dihydro-1,4-benzodioxan-8-yloxy)ethyl]azetidin-3-yl]naphthalene-2-sulphonamide] | −21% |  |  |  |  |  |  |  |
| 98% | 93% | 11% | 46% | 5% | 92% | 56% | O=S(=O)(NC1CCN(CCOc2cccc3c2OCCO3)C1)c1ccccc1 (stereo not drawn) [Compound 96, N-[1-[2-(2,3-Dihydro-1,4-benzodioxan-8-yloxy)ethyl]pyrrolidin-3-yl]-benzenesulphonamide] | 60% |  |  |  |  |  |  |  |
| 105% | 89% | −1% | 29% | 43% | 84% | 40% | Cc1cccc(S(=O)(=O)NC2CCN(CCOc3cccc4c3OCCO4)C2)c1 (stereo not drawn) [Compound 97, N-[1-[2-(2,3-Dihydro-1,4-benzodioxan-8-yloxy)ethyl]pyrrolidin-3-yl]-3-methylbenzenesulphonamide] | 64% |  |  |  |  |  |  |  |
| 100% | 87% | 16% | 62% | 32% | 92% | 67% | O=S(=O)(NC1CCN(CCOc2cccc3c2OCCO3)C1)c1cccc2ccccc12 (stereo not drawn) [Compound 98, N-[1-[2-(2,3-Dihydro-1,4-benzodioxan-8-yloxy)ethyl]pyrrolidin-3-yl]-naphthalene-1-sulphonamide] | 78% |  |  |  |  |  |  |  |

| SMILES | 5-HT7 [%] (5-HT7 receptor) | 5-HT2A [%] (5-HT2A receptor) | SERT [%] [1] | D2 [%] [2] | 5-HT6 [%] (5-HT6 receptor) | 5-HT1A [%] [3] | D3 [%] [4] | α1 [%] [5] | inhibition at 1 µM (5-HT7 receptor) | inhibition at 1 µM (5-HT2A receptor) | inhibition at 1 µM [1] | inhibition at 1 µM [2] | inhibition at 1 µM (5-HT6 receptor) | inhibition at 1 µM [3] | inhibition at 1 µM [4] |
| --- | --- | --- | --- | --- | --- | --- | --- | --- | --- | --- | --- | --- | --- | --- | --- |
| O=S(=O)(NC1CCN(CCOc2cccc3[nH]ccc23)CC1)c1cccc2ccccc12 [Compound 60, N-[1-[2-(1H-Indol-4-yloxy)ethyl]-4-piperidine]naphthalene-1-sulphonamide] | 96% | 76% | 21% | 41% | 69% | 85% | 102% | 87% |  |  |  |  |  |  |  |
| O=S(=O)(NC1CCN(CCOc2cccc3[nH]ccc23)CC1)c1ccc2ccccc2c1 [Compound 61, N-[1-[2-(1H-Indol-4-yloxy)ethyl]-4-piperidine]naphthalene-2-sulphonamide] | 95% | 92% | 43% | 39% | 71% | 77% | 83% | 79% |  |  |  |  |  |  |  |
| O=S(=O)(NCC1CCN(CCOc2cccc3[nH]ccc23)CC1)c1ccc2ccccc2c1 [Compound 67, N-[[1-[2-(1H-Indol-4-yloxy)ethyl]-4-piperidine]methyl]naphthalene-2-sulphonamide] | 79% | 80% | 38% | 57% | 87% | 76% | 94% | 91% |  |  |  |  |  |  |  |
| O=S(=O)(NCC1CCN(CCOc2ccc3cc[nH]c3c2)CC1)c1cccc2ccccc12 [Compound 71, N-[[1-[2-(1H-Indol-6-yloxy)ethyl]-4-piperidine]methyl]naphthalene-1-sulphonamide] | 31% | 26% | 49% | 27% | 80% | 28% | −1% | 36% |  |  |  |  |  |  |  |
